ChEMBL document CHEMBL2086385, “Synthesis and antimicrobial evaluation of L-phenylalanine-derived C5-substituted rhodanine and chalcone derivatives containing thiobarbituric acid or 2-thioxo-4-thiazolidinone” (2012)
≈ marks a conversion by molar mass, not a printed value.

Tests used:
Type in all cases: functional
Staphylococcus aureus [1] = test: Antibacterial activity against Staphylococcus aureus KCTC 209 after 24 hrs by broth microdilution method; settings: KCTC 209, 24 h
Staphylococcus aureus [2] = test: Antibacterial activity against Staphylococcus aureus KCTC 503 after 24 hrs by broth microdilution method; settings: KCTC 503, 24 h
Staphylococcus aureus [3] = test: Antibacterial activity against Staphylococcus aureus RN4220 after 24 hrs by broth microdilution method; settings: RN4220, 24 h
Escherichia coli = test: Antibacterial activity against Escherichia coli CCARM 1356 after 24 hrs by broth microdilution method; settings: CCARM 1356, 24 h
Staphylococcus aureus [4] = test: Antibacterial activity against methicillin-resistant Staphylococcus aureus CCARM 3167 clinical isolate after 24 hrs by broth microdilution method; settings: CCARM 3167, 24 h
Staphylococcus aureus [5] = test: Antibacterial activity against methicillin-resistant Staphylococcus aureus CCARM 3506 clinical isolate after 24 hrs by broth microdilution method; settings: CCARM 3506, 24 h
Staphylococcus aureus [6] = test: Antibacterial activity against quinolone-resistant Staphylococcus aureus CCARM 3505 clinical isolate after 24 hrs by broth microdilution method; settings: CCARM 3505, 24 h
Staphylococcus aureus [7] = test: Antibacterial activity against quinolone-resistant Staphylococcus aureus CCARM 3519 clinical isolate after 24 hrs by broth microdilution method; settings: CCARM 3519, 24 h
Staphylococcus aureus [8] = test: Ratio of norfloxacin MIC to compound MIC for methicillin-resistant Staphylococcus aureus CCARM 3167 clinical isolate
Staphylococcus aureus [9] = test: Ratio of norfloxacin MIC to compound MIC for methicillin-resistant Staphylococcus aureus CCARM 3506 clinical isolate
Staphylococcus aureus [10] = test: Ratio of norfloxacin MIC to compound MIC for quinolone-resistant Staphylococcus aureus CCARM 3505 clinical isolate
Staphylococcus aureus [11] = test: Ratio of norfloxacin MIC to compound MIC for quinolone-resistant Staphylococcus aureus CCARM 3519 clinical isolate

Row | Structure (SMILES) | MIC (Staphylococcus aureus [1]) [µg/mL] | MIC (Staphylococcus aureus [2]) [µg/mL] | MIC (Staphylococcus aureus [3]) [µg/mL] | MIC (Escherichia coli) [µg/mL] | MIC (Staphylococcus aureus [4]) [µg/mL] | MIC (Staphylococcus aureus [5]) [µg/mL] | MIC (Staphylococcus aureus [6]) [µg/mL] | MIC (Staphylococcus aureus [7]) [µg/mL] | Ratio (Staphylococcus aureus [8]) | Ratio (Staphylococcus aureus [9]) | Ratio (Staphylococcus aureus [10]) | Ratio (Staphylococcus aureus [11])
1 | O=C(O)[C@H](Cc1ccccc1)N1C(=O)/C(=C\c2ccc(OCc3ccc(Br)cc3)cc2)SC1=S | 8 (≈ 14.4 µM) | 8 (≈ 14.4 µM) | 2 (≈ 3.61 µM) | > 64 | 4 (≈ 7.21 µM) | 8 (≈ 14.4 µM) | 8 (≈ 14.4 µM) | 8 (≈ 14.4 µM) | 2 | 2 | 2 | 2
2 | O=C(O)[C@H](Cc1ccccc1)N1C(=O)/C(=C\c2ccc(OCc3ccc(Cl)cc3Cl)cc2)SC1=S | 8 (≈ 14.7 µM) | 8 (≈ 14.7 µM) | 2 (≈ 3.67 µM) | > 64 | 8 (≈ 14.7 µM) | 16 (≈ 29.4 µM) | 8 (≈ 14.7 µM) | 8 (≈ 14.7 µM) | 2 | 2 | 2 | 2
3 | CC(=O)Nc1ccc(C(=O)/C=C/c2ccc(/C=C3\SC(=S)N([C@@H](Cc4ccccc4)C(=O)O)C3=O)cc2)cc1 | 16 (≈ 28.7 µM) | 16 (≈ 28.7 µM) | 4 (≈ 7.19 µM) | > 64 | 4 (≈ 7.19 µM) | 2 (≈ 3.59 µM) | 4 (≈ 7.19 µM) | 4 (≈ 7.19 µM) | 2 | 2 | 2 | 2
4 | O=C(O)[C@H](Cc1ccccc1)N1C(=O)/C(=C\c2ccc(OCc3cccc(F)c3)cc2)SC1=S | 16 (≈ 32.4 µM) | 16 (≈ 32.4 µM) | 4 (≈ 8.1 µM) | > 64 | 8 (≈ 16.2 µM) | 8 (≈ 16.2 µM) | 8 (≈ 16.2 µM) | 8 (≈ 16.2 µM) | 2 | 2 | 2 | 2
5 | O=C(O)[C@H](Cc1ccccc1)N1C(=O)/C(=C\c2ccc(OCc3ccc(F)cc3)cc2)SC1=S | 8 (≈ 16.2 µM) | 8 (≈ 16.2 µM) | 4 (≈ 8.1 µM) | > 64 | 8 (≈ 16.2 µM) | 8 (≈ 16.2 µM) | 8 (≈ 16.2 µM) | 8 (≈ 16.2 µM) | 2 | 2 | 2 | 2
6 | O=C(O)[C@H](Cc1ccccc1)N1C(=O)/C(=C\c2ccc(OCc3ccc(Cl)cc3)cc2)SC1=S | 8 (≈ 15.7 µM) | 8 (≈ 15.7 µM) | 2 (≈ 3.92 µM) | > 64 | 4 (≈ 7.84 µM) | 4 (≈ 7.84 µM) | 4 (≈ 7.84 µM) | 4 (≈ 7.84 µM) | 2 | 2 | 2 | 2
7 | Cc1ccc(COc2ccc(/C=C3\SC(=S)N([C@@H](Cc4ccccc4)C(=O)O)C3=O)cc2)cc1 | 8 (≈ 16.3 µM) | 16 (≈ 32.7 µM) | 4 (≈ 8.17 µM) | > 64 | 4 (≈ 8.17 µM) | 8 (≈ 16.3 µM) | 8 (≈ 16.3 µM) | 8 (≈ 16.3 µM) | 2 | 2 | 2 | 2
8 | O=C(/C=C/c1ccc(/C=C2\SC(=S)N([C@@H](Cc3ccccc3)C(=O)O)C2=O)cc1)c1cccc(Cl)c1 | 16 (≈ 30 µM) | 16 (≈ 30 µM) | 2 (≈ 3.74 µM) | > 64 | 2 (≈ 3.74 µM) | 4 (≈ 7.49 µM) | 8 (≈ 15 µM) | 8 (≈ 15 µM) | 2 | 2 | 2 | 2
9 | O=C(/C=C/c1ccc(/C=C2\SC(=S)N([C@@H](Cc3ccccc3)C(=O)O)C2=O)cc1)c1ccc2ccccc2c1 | 8 (≈ 14.6 µM) | 8 (≈ 14.6 µM) | 2 (≈ 3.64 µM) | > 64 | 2 (≈ 3.64 µM) | 4 (≈ 7.28 µM) | 2 (≈ 3.64 µM) | 2 (≈ 3.64 µM) | 2 | 2 | 2 | 2
10 | O=C(O)[C@H](Cc1ccccc1)N1C(=O)/C(=C\c2ccc(OCc3cccc(Br)c3)cc2)SC1=S | 4 (≈ 7.21 µM) | 4 (≈ 7.21 µM) | 2 (≈ 3.61 µM) | > 64 | 4 (≈ 7.21 µM) | 4 (≈ 7.21 µM) | 4 (≈ 7.21 µM) | 8 (≈ 14.4 µM) | 2 | 2 | 2 | 2
11 | O=C(/C=C/c1ccc(/C=C2\SC(=S)N([C@@H](Cc3ccccc3)C(=O)O)C2=O)cc1)c1ccc(Cl)cc1Cl | 16 (≈ 28.1 µM) | 16 (≈ 28.1 µM) | 4 (≈ 7.04 µM) | > 64 | 4 (≈ 7.04 µM) | 4 (≈ 7.04 µM) | 4 (≈ 7.04 µM) | 16 (≈ 28.1 µM) | 2 | 2 | 2 | 2
12 | O=C(/C=C/c1ccc(/C=C2\SC(=S)N([C@@H](Cc3ccccc3)C(=O)O)C2=O)cc1)c1ccccc1 | 16 (≈ 32 µM) | 8 (≈ 16 µM) | 4 (≈ 8.01 µM) | > 64 | 4 (≈ 8.01 µM) | 4 (≈ 8.01 µM) | 8 (≈ 16 µM) | 4 (≈ 8.01 µM) | 2 | 2 | 2 | 2
13 | COc1ccccc1C(=O)/C=C/c1ccc(/C=C2\SC(=S)N([C@@H](Cc3ccccc3)C(=O)O)C2=O)cc1 | 16 (≈ 30.2 µM) | 16 (≈ 30.2 µM) | 8 (≈ 15.1 µM) | > 64 | 8 (≈ 15.1 µM) | 8 (≈ 15.1 µM) | 4 (≈ 7.55 µM) | 16 (≈ 30.2 µM) | 2 | 2 | 2 | 2
14 | O=C(/C=C/c1ccc(/C=C2\SC(=S)N([C@@H](Cc3ccccc3)C(=O)O)C2=O)cc1)c1ccc(Cl)cc1 | 8 (≈ 15 µM) | 8 (≈ 15 µM) | 2 (≈ 3.74 µM) | > 64 | 2 (≈ 3.74 µM) | 4 (≈ 7.49 µM) | 4 (≈ 7.49 µM) | 4 (≈ 7.49 µM) | 2 | 2 | 2 | 2
15 | O=C(/C=C/c1ccc(/C=C2\SC(=S)N([C@@H](Cc3ccccc3)C(=O)O)C2=O)cc1)c1ccccc1Cl | 16 (≈ 30 µM) | 16 (≈ 30 µM) | 2 (≈ 3.74 µM) | > 64 | 2 (≈ 3.74 µM) | 4 (≈ 7.49 µM) | 4 (≈ 7.49 µM) | 4 (≈ 7.49 µM) | 2 | 2 | 2 | 2
16 | COc1cccc(C(=O)/C=C/c2ccc(/C=C3\SC(=S)N([C@@H](Cc4ccccc4)C(=O)O)C3=O)cc2)c1 | 16 (≈ 30.2 µM) | 16 (≈ 30.2 µM) | 4 (≈ 7.55 µM) | > 64 | 8 (≈ 15.1 µM) | 8 (≈ 15.1 µM) | 8 (≈ 15.1 µM) | 8 (≈ 15.1 µM) | 2 | 2 | 2 | 2
17 | O=Cc1ccc(OCc2ccc(Br)cc2)cc1 | > 64 | > 64 | > 64 | > 64 | > 64 | > 64 | > 64 | > 64 |  |  |  | 
